Data on 2 molecules can be found in US20190248834A1, “ENDOMORPHIN-2, TETRAPEPTIDE DERIVATIVES THEREOF, AND USES THEREOF” (priority 2016, published 2019).

Common to all, as to type: in vivo, human
The test system of test [1] is chronic right shoulder pain. As to the kind of experiment: Example 7: analgesic effect on shoulder pain, topical. From the text:
A subject had chronic right shoulder pain. The subject was unable to lift their arm above chest level. The subject topically applied an anhydrous solution composition containing 0.5% (w/v) N-Ac-Tyr-Pro-Phe-Phe-NH2(SEQ ID NO: 23) in EP73, formulated as described in the Example 2, on their right shoulder at night. The next morning, 70% relief of pain was observed. The subject re-applied the composition at bedtime. The following morning, 85-90% relief was observed and they were able to lift their arm above their head with only minor discomfort.

Test [2] has as its system chronic subpatellar and peripheral patellar pain. The test is described as follows: Example 8: analgesic effect on knee pain, topical. The source says: A subject had chronic subpatellar and peripheral patellar pain in their knees.
The subject topically applied an anhydrous composition containing 0.7% (w/v) N-Ac-Tyr-Pro-Phe-Phe-NH2 (SEQ ID NO: 23) in EP73, formulated as described in Example 2, at bedtime. The next morning, they observed about 50% relief of pain. The subject topically re-applied the same composition under a plastic film wrap for one hour, after which they observed about 95% relief of pain.

Test [3] deals with jammed middle finger, pain and swelling. As to the kind of experiment: Example 15: analgesic effect on injured fingers, topical. The settings on record: 1% (w/v) in WEP442, topical. The source says: A subject, jammed their middle finger causing severe pain and swelling (inflammation). The subject topically applied a composition containing 1% (w/v) N-Ac-Tyr-Pro-Phe-Phe-NH2 ([…]) in WEP442 to the affected finger.

Test [4] concerns disabling pain in hands and fingers after exertion. As to the kind of experiment: Example 25: analgesic effect on severe muscle soreness, topical. To be noted: 1% (w/v) in WEP442, topical. From the text:
A subject had disabling pain in their hands and fingers the next morning after a day of intense exertion of the hands and fingers from using hand screw drivers over a 12-hour period during a building construction job. The intensity of pain was so great that they were unable to lace up their work boots.

The test system of test [5] is jaw pain after tooth extraction. The test is described as follows: Example 28: analgesic effect on dental extraction pain, topical. How it is done: A subject had substantial pain in the left mandibular jaw that started about 3 hours after extraction of a left mandibular molar tooth. […] Only negligible discomfort was perceptible thereafter.
For another test, the system named is knee pain. As to the kind of experiment: Example 32: analgesic effect on knee pain after housework, topical. The settings on record: 1% (w/v) in WEP442, topical. The source says:
A subject with discomforting knee pain in the evening after cleaning their own house for several hours topically applied a composition containing 1% (w/v) of N-Ac-Tyr-Pro-Phe-Phe-NH2 (SEQ ID NO: 23) in WEP442.

The next test concerns pain at injection sites. The test is described as follows: Example 39: analgesic effect on pain at site of subcutaneous injection of hyaluronic acid, topical. The settings on record: 1% (w/v) in WEP442, topical. From the text:
A subject, experienced substantial pain in the zygomatic-facial areas, sites injected subcutaneously with a hyaluronic acid product (Restylane) six hours earlier for the cosmetic purpose of plumping up the skin.

A further test relates to tennis elbow pain. As to the kind of experiment: Example 68: analgesic effect on tennis elbow pain, topical. The source says:
A person who played tennis recreationally for several decades developed increasingly severe pain in the elbow of their right arm. Two acupuncture treatments provided partial relief. […] They now play tennis with no pain.

Test [6] concerns back neck pain after cervical implant. As to the kind of experiment: Example 90: analgesic effect on post-surgery pain and discomfort, topical. To be noted: 1% (w/v) in WEP442, topical. From the text:
A subject had painful discomfort of their back neck for 2 years caused by a surgical titanium implant of the 7th cervical vertebra 2 years earlier. During the past years, the pain and discomfort had been improved from occasional treatments with acupuncture and massage therapy. However, such treatments provided only short term relief of pain and discomfort, usually one or two pain free days after each treatment.
On one afternoon, pain and discomfort suddenly developed. The subject topically applied a composition containing 1% (w/v) of N-Ac-Tyr-Pro-Phe-Phe-NH2 (SEQ ID NO: 23) in WEP442 solution to skin of their back neck area. […] The subject was free of pain and discomfort for at least 12 hours (4+ effect).

The next test has as its system severe headache. The test is described as follows: Example 59: analgesic effect on headache of acupuncturist, topical. The settings on record: 0.6% (w/v) in WEP442, topical. From the text:
A person acupuncturist, on a day while practicing their specialty, developed a severe headache that was not relieved by administering acupuncture procedures themself.

The next test concerns pharyngitis. As to the kind of experiment: Example 64: analgesic effect on pharyngitis, oral. How it is done: A subject developed a respiratory tract infection, symptoms of which included coughing and pharyngitis. Swallowing of saliva was very painful for the subject. […] A solution containing 0.5% (w/v) of N-Pg-Tyr-Pro-Phe-Phe-NH2 (SEQ ID NO: 44) in a mixture of propylene glycol (10 parts by volume) and glycerol (90 parts by volume) was prepared. One teaspoonful of the solution was held in the posterior part of the mouth for about one minute and then swallowed. […] Such relief of painful swallowing lasted for about 3 hours. Repeated administrations provided the same results.

The subject of test [7] is knee pain, bulging meniscus. As to the kind of experiment: Example 65: analgesic effect on pain from bulging sub-patellar meniscus, topical. To be noted: 0.6% (w/v) in WEP442, topical. The source says:
A landscape worker slipped on the grass and twisted their right knee, which became too painful for them to walk on without physical support. […] Surgical corrective procedures were scheduled for 2 weeks later. In the meantime, topical applications of the above solution as needed allowed them to move about with no discomfort.

The next test concerns carpal tunnel syndrome. As to the kind of experiment: Example 78: analgesic effect on carpal tunnel syndrome, topical. How it is done: A subject, and a computer operator, presented with symptoms of carpal tunnel syndrome, i.e. wrist pain and tingling sensations of the palm and fingers. […] Relief occurred within 3 minutes of topical application and lasted for 2-4 hours.

[8] abbreviates: 0.5% (w/v) in propylene glycol/glycerol, oral.

Non-standard residues stand in square brackets, D forms with d. pGlu = O=C1CC[C@@H](C(=O)O)N1 Some results are limits rather than exact numbers.

In the case of `CC(=O)N[C@@H](Cc1ccc(O)cc1)C(=O)N1CCC[C@H]1C(=O)N[C@@H](Cc1ccccc1)C(=O)N[C@@H](Cc1ccccc1)C(N)=O` [N-Ac-Tyr-Pro-Phe-Phe-NH2], the relief of pain is 85-90% in [1] (0.5% (w/v) in EP73, re-applied at bedtime, following morning); 70% in [1] (0.5% (w/v) in EP73, topical at night, next morning); “about 95%” in [2] (0.7% (w/v) in EP73, re-applied under plastic film wrap for one hour); “about 50%” in [2] (0.7% (w/v) in EP73, topical at bedtime, next morning). Also, the “relief of pain and swelling” value in [3] is “pain and much of the swelling disappeared”. In [3], the time to relief result was “almost immediately”. The recurrence result in [4] was “did not recur at all”; in the test with pain at injection sites, “did not return”. The pain relief result in [4] (hand-wash manner) was “instantaneous, complete relief of pain”; in test [5] (1% (w/v) in WEP442, topical to facial-lower jaw skin), “complete relief of pain”; in the test on knee pain, “Total relief of pain”; with pain at injection sites, “completely relieved the pain”; in the test with tennis elbow pain (0.5% (w/v) in WEP442, topical), “substantial relief of pain”; in [6], “the pain and discomfort disappeared”. The “time to pain relief” value was “less than 1 minute” in [5] (1% (w/v) in WEP442, topical); no more than 1 min in the test on knee pain; no more than 1 min in the test on pain at injection sites; 2 to 4 min with tennis elbow pain (0.5% (w/v) in WEP442, topical); “about 5 minutes” in test [6]. The “duration of pain relief” value with knee pain was in the range of 5 to 7 h. Besides, the “range of arm motion” value with tennis elbow pain (0.5% (w/v) in WEP442, about 1 week of several applications daily) is given as “returned to normal”. In addition, the analgesic effect grade in [6] is 4+ (4+ (90-100%): complete relief or eradication of pain for more than 4 hours). The “duration free of pain and discomfort” value in test [6] is “at least 12 hours”.
With “N-Pg-Tyr-Pro-Phe-Phe-NH2 ([pGlu]YPFF-NH2; SMILES NC(=O)[C@H](Cc1ccccc1)NC(=O)[C@H](Cc1ccccc1)NC(=O)[C@@H]1CCCN1C(=O)[C@H](Cc1ccc(O)cc1)NC(=O)[C@@H]1CCC(=O)N1)”, in the test on severe headache, the pain relief entry was “completely relieved their headache” and the “time to pain relief” value was no more than 2 min. The “relief of painful swallowing” value with pharyngitis (0.5% (w/v) in propylene glycol/glycerol 10:90, one teaspoonful held in mouth and swallowed) was “swallowing of liquids and semi-solid food could be done without pharyngeal pain”. In the test with pharyngitis (setting [8]), the duration of relief result was “about 3 hours” and the time to relief was no more than 10 min. Also, in test [7], the “duration of pain relief” value is “lasted throughout the working day”, the pain relief result is on record as “complete relief of pain” and the “time to pain relief” value is 3 to 4 min. In the test with carpal tunnel syndrome (0.5% (w/v) in WEP442, topical), this molecule displayed a duration of relief of 2 to 4 h and a time to relief of no more than 3 min. The relief of symptoms result in the test on carpal tunnel syndrome (0.5% (w/v) in WEP442, topical several times during working hours) is given as “substantial relief of the symptoms”.
